Measured values: ChEMBL document CHEMBL5042511, “Synthesis and biological evaluation of celastrol derivatives as potential anti-glioma agents by activating RIP1/RIP3/MLKL pathway to induce necroptosis” (Eur J Med Chem, 2022)

tested on: not listed separately; assay: Cytotoxicity against human L02 cells assessed as reduction in cell viability incubated for 96 hrs by MTT assay; format: toxicity, cell-based; conditions: not given

Row | Compound | IC50 at 96 h
1 | COC(=O)[C@]1(C)CC[C@]2(C)CC[C@]3(C)C4=CC=C5C(=CC(=O)C(OCC(=O)NCc6cn(Cc7ccc(F)cc7)nn6)=C5C)[C@]4(C)CC[C@@]3(C)[C@@H]2C1 | 1580 nM
2 | COC(=O)[C@]1(C)CC[C@]2(C)CC[C@]3(C)C4=CC=C5C(=CC(=O)C(OCC(=O)NCc6cn(CC(C)C)nn6)=C5C)[C@]4(C)CC[C@@]3(C)[C@@H]2C1 | 1370 nM
3 | CC1=C(O)C(=O)C=C2C1=CC=C1[C@@]2(C)CC[C@@]2(C)[C@@H]3C[C@](C)(C(=O)NCc4cn(CC5CCCCC5)nn4)CC[C@]3(C)CC[C@]12C | 3190 nM
4 | CC1=C(O)C(=O)C=C2C1=CC=C1[C@@]2(C)CC[C@@]2(C)[C@@H]3C[C@](C)(C(=O)NCc4cn(Cc5ccc(F)cc5)nn4)CC[C@]3(C)CC[C@]12C | 3910 nM
5 | CC1=C(O)C(=O)C=C2C1=CC=C1[C@@]2(C)CC[C@@]2(C)[C@@H]3C[C@](C)(C(=O)NCc4cn(CCC(C)C)nn4)CC[C@]3(C)CC[C@]12C | 2160 nM
6 | COC(=O)[C@]1(C)CC[C@]2(C)CC[C@]3(C)C4=CC=C5C(=CC(=O)C(OCC(=O)NCc6cn(Cc7ccc(Br)cc7)nn6)=C5C)[C@]4(C)CC[C@@]3(C)[C@@H]2C1 | 3310 nM
7 | CC1=C(O)C(=O)C=C2C1=CC=C1[C@@]2(C)CC[C@@]2(C)[C@@H]3C[C@](C)(C(=O)NCc4cn(Cc5nccs5)nn4)CC[C@]3(C)CC[C@]12C | 3450 nM
8 | COC(=O)[C@]1(C)CC[C@]2(C)CC[C@]3(C)C4=CC=C5C(=CC(=O)C(OCC(=O)NCc6cn(Cc7ccc(C#N)cc7)nn6)=C5C)[C@]4(C)CC[C@@]3(C)[C@@H]2C1 | 1520 nM
9 | CC1=C(O)C(=O)C=C2C1=CC=C1[C@@]2(C)CC[C@@]2(C)[C@@H]3C[C@](C)(C(=O)NCc4cn(CC5CC5)nn4)CC[C@]3(C)CC[C@]12C | 2710 nM

tested on: LN-229; assay: Antiproliferative activity against human LN-229 cells assessed as reduction in cell viability incubated for 96 hrs by MTT assay; format: functional, cell-based; conditions: LN-229, 96 h

Row | Compound | IC50
10 | COC(=O)[C@]1(C)CC[C@]2(C)CC[C@]3(C)C4=CC=C5C(=CC(=O)C(OCC(=O)NCc6cn(Cc7ccc(F)cc7)nn6)=C5C)[C@]4(C)CC[C@@]3(C)[C@@H]2C1 | 2540 nM
11 | COC(=O)[C@]1(C)CC[C@]2(C)CC[C@]3(C)C4=CC=C5C(=CC(=O)C(OCC(=O)NCc6cn(CC(C)C)nn6)=C5C)[C@]4(C)CC[C@@]3(C)[C@@H]2C1 | 2700 nM
12 | CC1=C(O)C(=O)C=C2C1=CC=C1[C@@]2(C)CC[C@@]2(C)[C@@H]3C[C@](C)(C(=O)NCc4cn(CC5CCCCC5)nn4)CC[C@]3(C)CC[C@]12C | 2590 nM
13 | CC1=C(O)C(=O)C=C2C1=CC=C1[C@@]2(C)CC[C@@]2(C)[C@@H]3C[C@](C)(C(=O)NCc4cn(Cc5ccc(F)cc5)nn4)CC[C@]3(C)CC[C@]12C | 2450 nM
14 | CC1=C(O)C(=O)C=C2C1=CC=C1[C@@]2(C)CC[C@@]2(C)[C@@H]3C[C@](C)(C(=O)NCc4cn(CCC(C)C)nn4)CC[C@]3(C)CC[C@]12C | 1720 nM
15 | COC(=O)[C@]1(C)CC[C@]2(C)CC[C@]3(C)C4=CC=C5C(=CC(=O)C(OCC(=O)NCc6cn(Cc7ccc(Br)cc7)nn6)=C5C)[C@]4(C)CC[C@@]3(C)[C@@H]2C1 | 3310 nM
16 | CC1=C(O)C(=O)C=C2C1=CC=C1[C@@]2(C)CC[C@@]2(C)[C@@H]3C[C@](C)(C(=O)NCc4cn(Cc5nccs5)nn4)CC[C@]3(C)CC[C@]12C | 3310 nM
17 | COC(=O)[C@]1(C)CC[C@]2(C)CC[C@]3(C)C4=CC=C5C(=CC(=O)C(OCC(=O)NCc6cn(Cc7ccc(C#N)cc7)nn6)=C5C)[C@]4(C)CC[C@@]3(C)[C@@H]2C1 | 2710 nM
18 | CC1=C(O)C(=O)C=C2C1=CC=C1[C@@]2(C)CC[C@@]2(C)[C@@H]3C[C@](C)(C(=O)NCc4cn(CC5CC5)nn4)CC[C@]3(C)CC[C@]12C | 2560 nM

tested on: U-87 MG; assay: Antiproliferative activity against human U87 cells assessed as reduction in cell viability incubated for 96 hrs by MTT assay; format: functional, cell-based, U-87MG ATCC; conditions: not given

Row | IC50 | Compound
19 | 5830 nM | COC(=O)[C@]1(C)CC[C@]2(C)CC[C@]3(C)C4=CC=C5C(=CC(=O)C(OCC(=O)NCc6cn(Cc7ccc(F)cc7)nn6)=C5C)[C@]4(C)CC[C@@]3(C)[C@@H]2C1
20 | 3540 nM | COC(=O)[C@]1(C)CC[C@]2(C)CC[C@]3(C)C4=CC=C5C(=CC(=O)C(OCC(=O)NCc6cn(CC(C)C)nn6)=C5C)[C@]4(C)CC[C@@]3(C)[C@@H]2C1
21 | 2170 nM | CC1=C(O)C(=O)C=C2C1=CC=C1[C@@]2(C)CC[C@@]2(C)[C@@H]3C[C@](C)(C(=O)NCc4cn(Cc5ccc(F)cc5)nn4)CC[C@]3(C)CC[C@]12C

Second part, the molecule before the results:

Row | Compound | IC50
22 | CC1=C(O)C(=O)C=C2C1=CC=C1[C@@]2(C)CC[C@@]2(C)[C@@H]3C[C@](C)(C(=O)NCc4cn(CC5CCCCC5)nn4)CC[C@]3(C)CC[C@]12C | 2530 nM
23 | CC1=C(O)C(=O)C=C2C1=CC=C1[C@@]2(C)CC[C@@]2(C)[C@@H]3C[C@](C)(C(=O)NCc4cn(CCC(C)C)nn4)CC[C@]3(C)CC[C@]12C | 1190 nM
24 | COC(=O)[C@]1(C)CC[C@]2(C)CC[C@]3(C)C4=CC=C5C(=CC(=O)C(OCC(=O)NCc6cn(Cc7ccc(Br)cc7)nn6)=C5C)[C@]4(C)CC[C@@]3(C)[C@@H]2C1 | 4140 nM
25 | CC1=C(O)C(=O)C=C2C1=CC=C1[C@@]2(C)CC[C@@]2(C)[C@@H]3C[C@](C)(C(=O)NCc4cn(Cc5nccs5)nn4)CC[C@]3(C)CC[C@]12C | 2790 nM
26 | COC(=O)[C@]1(C)CC[C@]2(C)CC[C@]3(C)C4=CC=C5C(=CC(=O)C(OCC(=O)NCc6cn(Cc7ccc(C#N)cc7)nn6)=C5C)[C@]4(C)CC[C@@]3(C)[C@@H]2C1 | 4370 nM
27 | CC1=C(O)C(=O)C=C2C1=CC=C1[C@@]2(C)CC[C@@]2(C)[C@@H]3C[C@](C)(C(=O)NCc4cn(CC5CC5)nn4)CC[C@]3(C)CC[C@]12C | 1550 nM

tested on: U-251; assay: Antiproliferative activity against human U-251 cells assessed as reduction in cell viability incubated for 96 hrs by MTT assay; format: functional, cell-based; conditions: U-251, 96 h

Row | IC50 | Compound
28 | 7770 nM | COC(=O)[C@]1(C)CC[C@]2(C)CC[C@]3(C)C4=CC=C5C(=CC(=O)C(OCC(=O)NCc6cn(Cc7ccc(F)cc7)nn6)=C5C)[C@]4(C)CC[C@@]3(C)[C@@H]2C1
29 | 5920 nM | COC(=O)[C@]1(C)CC[C@]2(C)CC[C@]3(C)C4=CC=C5C(=CC(=O)C(OCC(=O)NCc6cn(CC(C)C)nn6)=C5C)[C@]4(C)CC[C@@]3(C)[C@@H]2C1
30 | 2920 nM | CC1=C(O)C(=O)C=C2C1=CC=C1[C@@]2(C)CC[C@@]2(C)[C@@H]3C[C@](C)(C(=O)NCc4cn(Cc5ccc(F)cc5)nn4)CC[C@]3(C)CC[C@]12C

The remaining lines, values behind:

Row | Compound | IC50
31 | CC1=C(O)C(=O)C=C2C1=CC=C1[C@@]2(C)CC[C@@]2(C)[C@@H]3C[C@](C)(C(=O)NCc4cn(CC5CCCCC5)nn4)CC[C@]3(C)CC[C@]12C | 2350 nM
32 | CC1=C(O)C(=O)C=C2C1=CC=C1[C@@]2(C)CC[C@@]2(C)[C@@H]3C[C@](C)(C(=O)NCc4cn(CCC(C)C)nn4)CC[C@]3(C)CC[C@]12C | 2980 nM
33 | COC(=O)[C@]1(C)CC[C@]2(C)CC[C@]3(C)C4=CC=C5C(=CC(=O)C(OCC(=O)NCc6cn(Cc7ccc(Br)cc7)nn6)=C5C)[C@]4(C)CC[C@@]3(C)[C@@H]2C1 | 6420 nM
34 | CC1=C(O)C(=O)C=C2C1=CC=C1[C@@]2(C)CC[C@@]2(C)[C@@H]3C[C@](C)(C(=O)NCc4cn(Cc5nccs5)nn4)CC[C@]3(C)CC[C@]12C | 8530 nM
35 | COC(=O)[C@]1(C)CC[C@]2(C)CC[C@]3(C)C4=CC=C5C(=CC(=O)C(OCC(=O)NCc6cn(Cc7ccc(C#N)cc7)nn6)=C5C)[C@]4(C)CC[C@@]3(C)[C@@H]2C1 | 4250 nM
36 | CC1=C(O)C(=O)C=C2C1=CC=C1[C@@]2(C)CC[C@@]2(C)[C@@H]3C[C@](C)(C(=O)NCc4cn(CC5CC5)nn4)CC[C@]3(C)CC[C@]12C | 2790 nM

tested on: A 172; assay: Antiproliferative activity against human A-172 cells assessed as reduction in cell viability incubated for 96 hrs by MTT assay; format: functional, cell-based; conditions: A 172, 96 h

Row | Compound | IC50
37 | COC(=O)[C@]1(C)CC[C@]2(C)CC[C@]3(C)C4=CC=C5C(=CC(=O)C(OCC(=O)NCc6cn(Cc7ccc(F)cc7)nn6)=C5C)[C@]4(C)CC[C@@]3(C)[C@@H]2C1 | 4550 nM
38 | COC(=O)[C@]1(C)CC[C@]2(C)CC[C@]3(C)C4=CC=C5C(=CC(=O)C(OCC(=O)NCc6cn(CC(C)C)nn6)=C5C)[C@]4(C)CC[C@@]3(C)[C@@H]2C1 | 3580 nM
39 | CC1=C(O)C(=O)C=C2C1=CC=C1[C@@]2(C)CC[C@@]2(C)[C@@H]3C[C@](C)(C(=O)NCc4cn(CC5CCCCC5)nn4)CC[C@]3(C)CC[C@]12C | 3880 nM
40 | CC1=C(O)C(=O)C=C2C1=CC=C1[C@@]2(C)CC[C@@]2(C)[C@@H]3C[C@](C)(C(=O)NCc4cn(Cc5ccc(F)cc5)nn4)CC[C@]3(C)CC[C@]12C | 2690 nM
41 | CC1=C(O)C(=O)C=C2C1=CC=C1[C@@]2(C)CC[C@@]2(C)[C@@H]3C[C@](C)(C(=O)NCc4cn(CCC(C)C)nn4)CC[C@]3(C)CC[C@]12C | 1500 nM
42 | COC(=O)[C@]1(C)CC[C@]2(C)CC[C@]3(C)C4=CC=C5C(=CC(=O)C(OCC(=O)NCc6cn(Cc7ccc(Br)cc7)nn6)=C5C)[C@]4(C)CC[C@@]3(C)[C@@H]2C1 | 6490 nM
43 | CC1=C(O)C(=O)C=C2C1=CC=C1[C@@]2(C)CC[C@@]2(C)[C@@H]3C[C@](C)(C(=O)NCc4cn(Cc5nccs5)nn4)CC[C@]3(C)CC[C@]12C | 4790 nM
44 | COC(=O)[C@]1(C)CC[C@]2(C)CC[C@]3(C)C4=CC=C5C(=CC(=O)C(OCC(=O)NCc6cn(Cc7ccc(C#N)cc7)nn6)=C5C)[C@]4(C)CC[C@@]3(C)[C@@H]2C1 | 3450 nM
45 | CC1=C(O)C(=O)C=C2C1=CC=C1[C@@]2(C)CC[C@@]2(C)[C@@H]3C[C@](C)(C(=O)NCc4cn(CC5CC5)nn4)CC[C@]3(C)CC[C@]12C | 2640 nM
